This is an account of results in ChEMBL document CHEMBL4742387, “Condensed tricyclic compounds as protein kinase inhibitors” (2018).

The term pIC50 denotes −log10 of the IC50, conventionally taken in molar units. As a reminder, the GI50 is the concentration at which growth is held to half of that of the control.

One experiment addresses CDK8/Cyclin C (Homo sapiens, UniProt P49336). The experiment is described as follows: Inhibition of kinase tracer 236 binding to full-length His-tagged recombinant human CDK8/cyclin C incubated for 60 mins by FRET based LanthaScreen Eu-Kinase binding assay. It counts as protein-complex assay.
A further experiment concerns MV4-11. As to the kind of experiment: Antiproliferative activity against human MV4-11 cells assessed as reduction in cell proliferation by CellTiter-Glo luminescent cell viability assay. It counts as functional. The settings on record: Homo sapiens, MV4-11.
The next experiment deals with SW-620. The experiment is described as follows: Antiproliferative activity against human SW-620 cells assessed as reduction in cell proliferation by CellTiter-Glo luminescent cell viability assay. It counts as functional. As to conditions: Homo sapiens, SW-620.
The next experiment has as its system MDA-MB-231. As to the kind of experiment: Antiproliferative activity against human MDA-MB-231 cells assessed as reduction in cell proliferation by CellTiter-Glo luminescent cell viability assay. As to conditions: Homo sapiens, MDA-MB-231. It is filed as functional. (In ATP-based viability assays light output follows the ATP content of the culture.)
The subject of a further experiment is MOLM-13. As to the kind of experiment: Antiproliferative activity against human MOLM-13 cells assessed as reduction in cell proliferation by CellTiter-Glo luminescent cell viability assay. As to conditions: Homo sapiens, MOLM-13. It counts as functional.
For experiment [1], the target named is Cyclin-dependent kinase 8 (Homo sapiens, UniProt P49336). The experiment is described as follows: Inhibition of CDK8 in human SW-620 cells assessed as reduction in STAT1 S727 phosphorylation pre-incubated for 1 hr before IFNgamma stimulation for 3 hrs by Western blot analysis. It counts as cell-based. As to conditions: time 4.0 hrs. (In western blotting, separated proteins are transferred to a membrane and probed.)
Chain of Cyclin-dependent kinase 8 (P49336 whole entry): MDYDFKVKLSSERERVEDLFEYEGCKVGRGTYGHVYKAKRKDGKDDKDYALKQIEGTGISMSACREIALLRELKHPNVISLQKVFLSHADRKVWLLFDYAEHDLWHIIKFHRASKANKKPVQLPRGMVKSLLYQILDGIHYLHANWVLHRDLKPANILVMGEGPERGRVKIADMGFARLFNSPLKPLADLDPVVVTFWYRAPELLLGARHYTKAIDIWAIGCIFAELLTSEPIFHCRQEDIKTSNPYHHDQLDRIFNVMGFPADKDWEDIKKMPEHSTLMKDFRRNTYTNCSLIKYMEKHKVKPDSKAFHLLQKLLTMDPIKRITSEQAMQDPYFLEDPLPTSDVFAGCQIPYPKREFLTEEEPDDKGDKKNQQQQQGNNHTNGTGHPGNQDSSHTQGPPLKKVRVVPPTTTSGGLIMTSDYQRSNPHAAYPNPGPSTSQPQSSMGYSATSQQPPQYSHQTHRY

SMILES strings stand for the structures. pIC50: −log10 of the molar value.

Chain of CDK8/Cyclin C (P49336 whole entry): as above
Chain of CDK8/Cyclin C (P24863 whole entry, further chain): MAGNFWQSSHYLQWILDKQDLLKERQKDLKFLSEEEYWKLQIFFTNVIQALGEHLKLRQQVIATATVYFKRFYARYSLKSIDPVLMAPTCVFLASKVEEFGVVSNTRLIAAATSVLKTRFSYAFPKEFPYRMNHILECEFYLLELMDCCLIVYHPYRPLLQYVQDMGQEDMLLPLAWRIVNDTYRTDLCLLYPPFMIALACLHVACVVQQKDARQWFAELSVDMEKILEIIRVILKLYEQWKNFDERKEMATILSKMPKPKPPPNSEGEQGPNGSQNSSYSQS

Regarding `NC(=O)c1cc2c(n1CCF)-c1ccncc1OC21CCOCC1`, on CDK8/Cyclin C, the pIC50 was above 8.85.
`Cn1c(C(N)=O)cc2c1-c1ccncc1OC21CCOCC1`: the GI50 in the experiment with MV4-11 was below 1000 nM; with SW-620, 1000 nM; with MDA-MB-231 it was 1000 nM; in the experiment with MOLM-13, below 1000 nM.
Consider `NC(=O)c1cc2c([nH]1)-c1ccncc1OC21CCC1`, for which the GI50 in the experiment on MV4-11 is below 1000 nM; in the experiment with SW-620 it was 10000 nM; with MDA-MB-231 it was 1000 nM; with MOLM-13, below 1000 nM. For the same compound, the INH in experiment [1] was below 500 nM.
For `CCn1c(C(N)=O)cc2c1-c1ccncc1OC21CCCCC1` [listing 1 of 2 here], the pIC50 on CDK8/Cyclin C was 6.52.
Regarding `CC1(C)Oc2cncc(Cl)c2-c2[nH]c(C(N)=O)cc21`, the GI50 with MV4-11 is below 1000 nM.
For the compound `Cn1c(C(N)=O)cc2c1-c1ccncc1OC21CCCCC1`, the GI50 was below 1000 nM with MV4-11, 1000 nM in the experiment with SW-620, 1000 nM in the experiment on MDA-MB-231 and below 1000 nM in the experiment with MOLM-13. Moreover, the INH in experiment [1] is below 500 nM.
Regarding `NC(=O)c1cc2c([nH]1)-c1ccncc1OC21CCN(CC(F)(F)F)CC1`, the GI50 with MV4-11 was 1000 nM; with SW-620, 10000 nM; in the experiment with MDA-MB-231 it was 10000 nM; with MOLM-13, 1000 nM.
In the case of `CC1(C)Oc2cnccc2-c2[nH]c(C(N)=O)cc21`, the GI50 was 1000 nM in the experiment on MV4-11 and 10000 nM in the experiment on MDA-MB-231.
In the case of `CCn1c(C(N)=O)c(-c2cccc(OC)c2)c2c1-c1ccncc1OC2(C)C`, the GI50 in the experiment on MV4-11 was below 1000 nM; in the experiment with SW-620, 10000 nM; with MDA-MB-231, 10000 nM; in the experiment with MOLM-13 it was 1000 nM.
In the case of `CCn1c(C(N)=O)c(Cl)c2c1-c1ccncc1OC21CCCCC1`, the pIC50 on CDK8/Cyclin C is above 8.85.
With `Cn1c(C(N)=O)cc2c1-c1ccncc1OC2(C)C`, the GI50 in the experiment on MV4-11 is below 1000 nM; in the experiment with SW-620, 10000 nM; in the experiment with MDA-MB-231 it was 1000 nM; in the experiment on MOLM-13, 1000 nM.
For `COCCn1c(C(N)=O)cc2c1-c1ccncc1OC21CCOCC1`, the GI50 in the experiment on MV4-11 came to 1000 nM; with SW-620, 10000 nM; in the experiment with MDA-MB-231, 10000 nM; in the experiment on MOLM-13, 10000 nM.
Turning to `NC(=O)c1cc2c([nH]1)-c1ccncc1OC21CCN(CCc2ccccc2)CC1`, the GI50 in the experiment on MV4-11 was below 1000 nM; in the experiment on SW-620, 1000 nM; in the experiment with MDA-MB-231, 1000 nM; in the experiment with MOLM-13 it was below 1000 nM.
Regarding `NC(=O)c1cc2c(n1CCF)-c1ccncc1OC21CCC1`, the GI50 in the experiment with MV4-11 is below 1000 nM; in the experiment on SW-620 it was 1000 nM; in the experiment with MDA-MB-231, 1000 nM; in the experiment with MOLM-13, below 1000 nM. For the same compound, the INH in experiment [1] was below 500 nM.
Regarding `CCn1c(C(N)=O)cc2c1-c1ccncc1OC21CCCCC1` [listing 2 of 2 here], the GI50 with MV4-11 is below 1000 nM; in the experiment on SW-620, 1000 nM; in the experiment on MDA-MB-231, 1000 nM; in the experiment with MOLM-13 it was below 1000 nM.
`CC1(C)Oc2cnccc2-c2[nH]c(C(N)=O)c(C3CC3)c21`: the GI50 with MV4-11 was below 1000 nM; with SW-620, 1000 nM; in the experiment on MDA-MB-231, 1000 nM; with MOLM-13 it was 1000 nM. The INH in experiment [1] is below 500 nM.
As for `COc1ccc(S(=O)(=O)Nc2cccnc2Nc2ccc(O)cc2)cc1` [ABT-751], the GI50 with SW-620 is 500 nM.
